Laboratory results published in patent US8673892B2, “Phenyl bicyclic methyl azetidine derivatives as sphingosine-1 phosphate receptors modulators” (Allergan, Inc., priority 2011, dated 2014).

Target: T1, human S1P1 receptor (Homo sapiens, UniProt P21453)
T1 construct: expressed in transfected cells; membranes used
Assay: GTP γ35S binding assay for S1P1 activity
Type: biochemical
Settings: membranes of cells stably expressing the S1P1 receptor; agonist-induced GTP γ35S binding; read-out: EC50 at the S1P1 receptor from GTP γ35S
Description: Compounds were synthesized and tested for S1P1 activity using the GTP γ^35S binding assay. These compounds may be assessed for their ability to activate or block activation of the human S1P1 receptor in cells stably expressing the S1P1 receptor.
GTP γ^35S binding was measured in the medium containing (mM) HEPES 25, pH 7.4, MgCl2 10, NaCl 100, dithitothreitol 0.5, digitonin 0.003%, 0.2 nM GTP γ^35S, and 5 μg membrane protein in a volume of 150 μl. Test compounds were included in the concentration range from 0.08 to 5,000 nM unless indicated otherwise. Membranes were incubated with 100 μM 5′-adenylylimmidodiphosphate for 30 min, and subsequently with 10 μM GDP for 10 min on ice. Drug solutions and membrane were mixed, and then reactions were initiated by adding GTP γ^35S and continued for 30 min at 25° C. Reaction mixtures were filtered over Whatman GF/B filters under vacuum, and washed three times with 3 mL of ice-cold buffer (HEPES 25, pH7.4, MgCl2 10 and NaCl 100). Filters were dried and mixed with scintillant, and counted for ^35S activity using a β-counter. Agonist-induced GTP γ^35S binding was obtained by subtracting that in the absence of agonist. Binding data were analyzed using a non-linear regression method. In case of antagonist assay, the reaction mixture contained 10 nM […] in the presence of test antagonist at concentrations ranging from 0.08 to 5000 nM.

T1 sequence (P21453 whole entry): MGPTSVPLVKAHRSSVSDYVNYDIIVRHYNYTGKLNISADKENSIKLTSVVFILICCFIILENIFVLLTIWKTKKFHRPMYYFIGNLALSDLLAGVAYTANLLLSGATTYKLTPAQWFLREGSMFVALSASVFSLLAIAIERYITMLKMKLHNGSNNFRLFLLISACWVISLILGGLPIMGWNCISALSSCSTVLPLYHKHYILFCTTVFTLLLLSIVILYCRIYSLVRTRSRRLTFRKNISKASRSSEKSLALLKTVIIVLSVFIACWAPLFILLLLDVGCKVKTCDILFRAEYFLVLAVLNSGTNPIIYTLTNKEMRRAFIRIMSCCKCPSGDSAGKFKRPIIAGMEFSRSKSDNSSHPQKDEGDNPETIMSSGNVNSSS

CCCCCCc1ccc(-c2ccc(CN3CC(C(=O)O)C3)c3ncccc23)cc1 [Compound 1, 1-{[5-(4-hexylphenyl)quinolin-8-yl]methyl}azetidine-3-carboxylic acid]
EC50: 1550 nM
